Where “and” joins values, the source holds several entries; their conditions need not be identical. Equal values may be shown once.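 1) Cells in 96-well plates. 2) Compound, 48 h, 5 concentrations. 3) Linear interpolation between surrounding doses. 4) Unreached endpoint = highest concentration. Here, GI50 denotes the concentration required for 50% inhibition of growth. TGI is the concentration that stops growth completely.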
Tests used:
Test in all cases: DTP human tumour cell line panel, 48 h
[1] = test system: SR leukemia
[2] = test system: HCC-2998 colon
[3] = test system: UO-31 renal
[4] = test system: T-47D breast
[5] = test system: RPMI-8226 leukemia
[6] = test system: LOX IMVI melanoma
[7] = test system: HL-60(TB) leukemia
[8] = test system: HCT-116 colon
[9] = test system: KM12 colon
[10] = test system: HOP-92 NSCLC

SMILES | GI50 [1] | TGI [1] | GI50 [2] | TGI [2] | GI50 [3] | TGI [3] | GI50 [4] | TGI [4] | GI50 [5] | TGI [5] | GI50 [6] | TGI [6] | GI50 [7] | TGI [7] | GI50 [8] | TGI [8] [µM] | GI50 [9] | TGI [9] | GI50 [10] | TGI [10]
Cc1ccc(CNc2ccc3nc(CCC4CCCCC4)[nH]c3c2)cc1 | 2.91 µM | 8.74 µM | 2.19 µM | 4.35 µM | 1.35 µM | 3.3 µM | 2.56 µM | 8.5 µM | 2.03 µM | 4.64 µM | 1.74 µM | 3.19 µM | 1.98 µM | 4.62 µM | 1.95 µM | 5.05 | 2.83 µM | 9.05 µM | 1.23 µM | 3.49 µM
COc1cc2nc(N3CCCN(C)CC3)nc(NC3CCN(Cc4ccccc4)CC3)c2cc1OC | 2.23 µM | 6.66 µM | 2.71 µM | 8.76 µM | 1.69 µM | 3.2 µM | 2.53 µM | 6.25 µM | 2.31 µM | 6.18 µM | 1.68 µM | 3.28 µM | 1.83 µM | 4.3 µM | 2.24 µM | 6.19 | 3.07 µM | 9.82 µM | 4.12 µM | 13.6 µM
Cc1ccc2c(C(C[N+](=O)[O-])c3ccccc3)c(-c3ccccc3)[nH]c2c1 (stereo not given) | 4.54 µM | > 95 µM | 73.7 µM | > 95 µM | 15.4 µM | > 95 µM | 26.4 µM | > 95 µM | 36.8 µM | > 95 µM | 38.2 µM | > 95 µM | 22.6 µM | 57.2 µM | 30.2 µM | > 95 | 21.6 µM | > 95 µM | 11.8 µM | > 95 µM
COc1ccc(-c2ncnc3c2ncn3CC#CCCl)cc1 | 5.24 µM | > 100 µM | 17.6 µM | 31.8 µM | 2.43 µM | 15.3 µM | 2.89 µM | 12.7 µM | 3.46 µM | 20 µM | 1.77 µM | 3.52 µM | 3.06 µM | 17.6 µM | 3.5 µM | 14.7 | 4.85 µM | 17.5 µM | 2.75 µM | 11.8 µM
COC[C@H](NC(=O)c1cnc(C)s1)C(=O)N[C@@H](COC)C(=O)N[C@@H](Cc1ccccc1)C(=O)[C@@]1(C)CO1 | > 61.4 µM | > 100 µM | 18.2 µM | 37.6 µM | 30.9 µM | > 100 µM | 19.9 µM | > 71.2 µM | 18.5 µM | > 100 µM | 17.8 µM | 38.4 µM | 35 µM | > 100 µM | 9.27 µM | 32.6 | 21.4 µM | 56 µM | 30.3 µM | > 82.4 µM
Fc1cccc(COc2ccc(Nc3ncnc4onc(-c5ccccc5)c34)cc2)c1 | 0.0884 µM | > 100 µM | 0.287 µM | 16.8 µM | 3 µM | 26.8 µM | 0.218 µM | > 100 µM | 0.0497 µM | > 42 µM | 0.125 µM | > 100 µM | 0.0955 µM | > 100 µM | 0.0546 µM | > 37.4 | 0.173 µM | > 38.4 µM | 0.264 µM | 62.8 µM
Cc1c(CN2CCN(C(=O)[C@H](C)O)CC2)sc2c(N3CCOCC3)nc(-c3cnc(N)nc3)nc12 | 0.365 µM and 0.262 µM | > 10 µM and 3.88 µM | 0.552 µM and 0.242 µM | 9.79 µM and 13.1 µM | 0.0579 µM and 0.053 µM | 1.35 µM and 0.658 µM | 0.0145 µM and 0.0269 µM | 0.332 µM and 0.175 µM | 0.267 µM and 0.206 µM | > 8.66 µM and 11.8 µM | 0.153 µM and 0.179 µM | 3.05 µM and 2.64 µM | 0.146 µM and 0.192 µM | > 10 µM and 6.81 µM | 0.634 µM and 0.252 µM | > 40.1 | 0.755 µM and 0.393 µM | > 10 µM and 15.2 µM | 0.143 µM and 0.0181 µM | 0.8 µM and 0.108 µM
